Source: patent publication US20090123581A1, “COLLAGEN CROSS-LINKING AGENTS ON DENTAL RESTORATIVE TREATMENT AND PREVENTIVE DENTISTRY” (THE BOARD OF TRUSTEES OF THE UNIVERSITY OF ILLINOIS, priority 2006, published 2009)

Columns and labels:
[1] = Ultimate tensile strength (UTS) of demineralized dentin after cross-linker treatment (Example 1); design: species or system human; conditions: for Ultimate tensile strength, mean: pH 7.4
Description: (§1) Fixation Processes: Ten sound freshly extracted human molars were used in this study. The teeth were thawed, cleaned of adhering soft tissues, and the occlusal surfaces were ground flat with #320 grit Silicon Carbide paper under running water to remove part of the enamel. Flattening of the occlusal surface by removal of the cusps enables accurate sectioning of samples in beam shape. Teeth were sectioned into 0.5±0.1 by 0.5±0.1 mm thick beams (n=20 beams per tooth) with a slow speed diamond wafering blade (Buehler-Series 15LC Diamond, Lake Bluff, Ill., USA) under constant water coolant (FIG. 1A).
(§2) The slabs were randomly divided into two groups: 1) undemineralized dentin and 2) demineralized dentin (FIG. 1A). In Group 2, dentin beams were immersed in 10% phosphoric acid solution (Fisher Scientific, New Jersey, N.J.) for a period of 5 hours. X-rays were taken from the specimens to verify complete tissue demineralization. Specimens were thoroughly rinsed with distilled water for 10 minutes to remove any residue of the phosphoric acid.
(§3) Specimens from groups 1 and 2 were subdivided according to the dentin treatment (FIG. 1B). In Treatment A, specimens were immersed in PBS solution (pH: 7.4) as a control. In Treatment B, specimens were immersed in 0.5% Proanthocyanidin (MegaNatural—Polyphenolics Ind.) PBS solution (PA) at a pH of 7.4. In Treatment C, specimens were immersed in 0.625% Genipin (Wako Pure Chemical Ind.) PBS solution (GE) at a pH of 7.4. In Treatment D, specimens were immersed in 5% glutaraldehyde solution (GD) (Fisher Scientific, New Jersey, N.J.) at a pH of 7.4. Specimens were kept in their respective solutions for 4 and 40 hours at room temperature. After the incubation periods, specimens were thoroughly rinsed with distilled and deionized water to remove any remains of cross-linking agents and buffer.
(§4) UTS testing: For UTS evaluation, the specimens were glued with a cyanoacrylate adhesive (Zapit—Dental Ventures of America Inc., Corona, Calif.) to a Ciucchi's jig, which was mounted on a universal testing machine (EZ Test, Shimazu Co., Kyoto, Japan) and subjected to microtensile testing at a crosshead speed of 1 mm/min (FIG. 1C). Means and standard deviations were calculated and expressed in microtensile bond strengths (MPa). Statistical analysis was performed using a two-way ANOVA and Fisher's PLSD tests (p<0.05).

[2] = Ultimate tensile strength (UTS) of undemineralized (mineralized) dentin after cross-linker treatment (Example 1); design: species or system human; conditions: 0.625% GE or 5% GD; for Ultimate tensile strength, mean: pH 7.4
Description: as §1, §2, §3, §4

COC(=O)C1=CO[C@@H](O)[C@@H]2C(CO)=CC[C@H]12 [GE, genipin]
Ultimate tensile strength, mean ([1]; 4 hours in 0.5% PA, 0.625% GE or 5% GD): 11.0 MPa | Ultimate tensile strength, mean ([1]; 40 hours in 0.5% PA, 0.625% GE or 5% GD): 18.2 MPa | increase in the UTS values ([1]; 40 hours treatment, versus control): approximately 80% | Ultimate tensile strength, pooled data ([1]; pooled over 4 and 40 hours, 0.5% PA, 0.625% GE or 5% GD): 14.6 B MPa | UTS values compared to the control group (statistics) ([1]; two-way ANOVA, Fisher's PLSD): statistically significant increase | Ultimate tensile strength, mean ([2]; 4 hours in 0.5% PA): 84.2 MPa | Ultimate tensile strength, mean ([2]; 40 hours in 0.5% PA): 94.2 MPa | Ultimate tensile strength, pooled data ([2]; pooled over 4 and 40 hours, 0.5% PA): 89.2 A MPa
